Molecular target: T1, NSD2 (Homo sapiens, UniProt O96028)
T1 sequence (O96028 1-1365): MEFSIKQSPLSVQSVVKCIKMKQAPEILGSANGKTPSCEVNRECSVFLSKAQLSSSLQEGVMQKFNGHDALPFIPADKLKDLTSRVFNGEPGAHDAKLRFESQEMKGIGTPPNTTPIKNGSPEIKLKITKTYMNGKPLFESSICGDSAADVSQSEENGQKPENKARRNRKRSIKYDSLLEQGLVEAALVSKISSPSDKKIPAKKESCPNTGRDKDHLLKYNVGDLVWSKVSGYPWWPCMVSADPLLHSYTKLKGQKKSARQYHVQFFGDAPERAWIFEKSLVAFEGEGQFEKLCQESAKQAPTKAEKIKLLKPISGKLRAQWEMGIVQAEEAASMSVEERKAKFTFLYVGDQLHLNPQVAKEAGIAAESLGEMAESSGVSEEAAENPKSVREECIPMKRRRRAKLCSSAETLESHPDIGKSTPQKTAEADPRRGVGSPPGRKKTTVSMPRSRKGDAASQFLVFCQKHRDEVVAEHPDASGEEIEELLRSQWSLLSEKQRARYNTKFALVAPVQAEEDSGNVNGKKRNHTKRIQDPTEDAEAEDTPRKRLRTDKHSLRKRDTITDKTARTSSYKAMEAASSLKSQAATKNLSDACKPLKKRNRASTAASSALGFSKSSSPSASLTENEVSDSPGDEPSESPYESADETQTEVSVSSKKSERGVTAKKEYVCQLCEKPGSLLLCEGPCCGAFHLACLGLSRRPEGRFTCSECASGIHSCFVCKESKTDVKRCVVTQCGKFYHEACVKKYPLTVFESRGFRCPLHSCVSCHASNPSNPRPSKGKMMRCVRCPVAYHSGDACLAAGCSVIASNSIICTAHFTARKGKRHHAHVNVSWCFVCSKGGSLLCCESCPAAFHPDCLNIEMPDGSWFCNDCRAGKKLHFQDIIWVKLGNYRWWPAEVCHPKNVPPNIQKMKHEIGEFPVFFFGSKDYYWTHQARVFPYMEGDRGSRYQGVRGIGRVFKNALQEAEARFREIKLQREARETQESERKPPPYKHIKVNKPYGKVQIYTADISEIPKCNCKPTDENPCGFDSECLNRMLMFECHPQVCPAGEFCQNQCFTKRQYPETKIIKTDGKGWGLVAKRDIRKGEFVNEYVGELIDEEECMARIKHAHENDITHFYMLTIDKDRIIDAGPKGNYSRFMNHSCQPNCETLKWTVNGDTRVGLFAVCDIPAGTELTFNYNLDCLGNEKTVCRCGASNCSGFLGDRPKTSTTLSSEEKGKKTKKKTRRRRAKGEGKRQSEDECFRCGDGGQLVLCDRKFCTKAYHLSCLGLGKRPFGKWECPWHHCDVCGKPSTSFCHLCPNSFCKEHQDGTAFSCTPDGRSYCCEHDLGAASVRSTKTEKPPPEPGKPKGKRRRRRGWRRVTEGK
Test: Pharmacodynamic assessment in 22RV1 xenograft model
Type: in vivo, mice
Parameters: from tissue; host or cells: 22RV1 subcutaneous xenograft tumours in CB17 SCID mice
Conditions: 5 consecutive days
Description: We finally performed pharmacodynamic assessment of LLC0424 in both the SEM and 22RV1 xenograft model. Based on the solubility of LLC0424 and the tolerance of the mice, we chose 60 mg/kg as the dosage for the pharmacodynamic study. LLC0424 was administrated by intravenous (iv) or intraperitoneal (ip) injection at a dose of 60 mg/kg for 5 consecutive days. The tumor tissues were harvested at day 5 and subjected to histology and Western blot analysis (Figure 7A, and SI, Figure S6A).
First, 6–8 weeks old male CB17 severe combined immunodeficiency (SCID) mice were procured from the University of Michigan breeding colony. Subcutaneous tumors were established at both sides of the dorsal flank of mice. Tumors were measured at least biweekly using digital calipers following the formula (π/6) (L × W2), where L is length and W is width of the tumor. At the end of the studies, mice were sacrificed and tumors extracted. For each tumor, a part is […] followed by embedding in paraffin to make tissue blocks. The blocks were sectioned at […] for immunohistochemistry analysis. Another part is made into tissue lysates for Western blotting analysis. The University of Michigan Institutional Animal Care and Use Committee (IACUC) approved all in vivo studies. […]

O=C1CCC(N2C(=O)c3ccc(N4CCC(NC(=O)c5ccc(NC(=O)c6ccc(CN(C(=O)c7ccc8c(c7)OCC(=O)N8)C7CC7)cc6)cc5)CC4)cc3C2=O)C(=O)N1 (centres unmarked) [compound 10l, N-Cyclopropyl-N-(4-((4-((1-(2-(2,6-dioxopiperidin-3-yl)-1,3-dioxoisoindolin-5-yl)piperidin-4-yl)carbamoyl)phenyl)carbamoyl)benzyl)-3-oxo-3,4-dihydro-2H-benzo[b][1,4]oxazine-7-carboxamide]
NSD2 level in tumor tissue (60 mg/kg iv or ip, versus vehicle): significantly downregulated | NSD2 degradation, iv versus ip administration (60 mg/kg): comparable level of NSD2 degradation

Reference: PMC11094793, “Discovery of LLC0424 as a Potent and Selective in Vivo NSD2 PROTAC Degrader” (Journal of Medicinal Chemistry, 2024)
